Test results from patent US7030157B2, “Pharmaceutical compositions, kits and methods comprising combinations of estrogen agonists/antagonists, estrogens and progestins” (priority 2001, dated 2006).
Entries after “also recorded” stand apart in the source; their conditions may differ.

Key:
[1] = Total serum cholesterol (TSC) in OVX rats; assay type: in vivo, Sprague-Dawley female rats; conditions: daily gavage 28 days, EE 0.03 mg/kg, LAS 0.1 mg/kg
Description: (§1) Sprague-Dawley female rats at 5.5 months of age were used in this study. Rats underwent either sham-operation or bilateral ovariectomy. Beginning at 1 day post-surgery, the rats were treated (daily gavage) with vehicle, 17α-ethanyl estradiol (EE) alone, lasofoxifene (LAS) alone, or combination of both EE and LAS for 28 days, according to the following protocol.
(§2) There were 10 rats in each group. All rats received subcutaneous injections of the fluorescent marker, calcein, at 10 mg/kg on days 12 and 2 before necropsy in order to determine dynamic bone changes. After 28 days of treatment, the rats were necropsy, and the following endpoints were determined. • Body weight • Total serum cholesterol (TSC) • Uterine wet weight • Peripheral quantitative computerized tomography (pQCT). A pQCT X-ray machine (Stratec XCT Reasearch M, Norland Medical Systems, Fort Atkinson, Wis.) with version 5.40 was used to scan femurs from this study. […] Cortical bone was defined and analyzed using contour mode 2 and cortical mode 4. […] Furthermore, cortical bone along the endocortical surface was determined with an inner threshold of 529 mg/cm^3. […] For trabecular and cortical bone, content, density and area were determined. […]
(§3) Statistics were calculated using StatView 4.0 software (Abacus Concepts, Inc., Berkeley, Calif.). […]

uterus of OVX rats = test: Uterine wet weight in OVX rats
Description: as §1, §2, §3

OVX-induced bone loss = test: pQCT of the distal femur in OVX rats; assay type: in vivo, Sprague-Dawley female rats; conditions: for pQCT cortical content, distal femur / pQCT total density, distal femur: daily gavage 28 days, EE 0.03 mg/kg, LAS 0.1 mg/kg; for OVX-induced bone loss: fully efficacious doses (EE 0.03 mg/kg, LAS 0.1 mg/kg), 28 days
Description: as §1
(§4) There were 10 rats in each group. All rats received subcutaneous injections of the fluorescent marker, calcein, at 10 mg/kg on days 12 and 2 before necropsy in order to determine dynamic bone changes. After 28 days of treatment, the rats were necropsy, and the following endpoints were determined. • Body weight • Total serum cholesterol (TSC) • Uterine wet weight • Peripheral quantitative computerized tomography (pQCT). A pQCT X-ray machine (Stratec XCT Reasearch M, Norland Medical Systems, Fort Atkinson, Wis.) with version 5.40 was used to scan femurs from this study. A cross sectional slice 1 mm in thickness was taken of the femoral metaphysis approximately 5 mm proximal to the distal end. A voxel size of 0.10 mm was used, with dimensions of 100×100×1000 micometers. Cortical bone was defined and analyzed using contour mode 2 and cortical mode 4. The cortical shell was distinguished from soft tissue with an outer threshold setting of 349 mg/cm^3. Furthermore, cortical bone along the endocortical surface was determined with an inner threshold of 529 mg/cm^3. In order to determine the presence of trabecular bone, peel mode 4 was used. (Sub)Cortical bone was distinguished from cancellous bone with a threshold setting of 655 mg/cm^3. An additional concentric peel was also used to eliminate (sub)cortical bone from any analyses. For trabecular and cortical bone, content, density and area were determined. […] Tibiae were removed upon necropsy and removed of tissue. The proximal portion of the tibia was fixed in 70% ethanol, dehydrated in graded concentrations of ethanol, defatted in acetone, and embedded in methyl methacrylate. Four and ten μm sections were taken to determine several histomorphometric parameters with an Image Analysis System (Osteomeasure, Inc., Atlanta, Ga.). The 10 μm remained unstained while the 4 μm section was stained with modified Masson's Trichrome stain (5,6,7). Statistics
(§5) Statistics were calculated using StatView 4.0 software (Abacus Concepts, Inc., Berkeley, Calif.). Fisher's PLSD was used to determine the differences between each group. A p value<0.05 was considered a significant difference.

[2] = test system: OVX-induced bone resorption and bone turnover; test: Dynamic histomorphometry of the proximal tibial metaphysis in OVX rats; assay type: in vivo, Sprague-Dawley female rats; conditions: daily gavage 28 days, EE 0.03 mg/kg, LAS 0.1 mg/kg
Description: as §1, §4, §5

estrogen receptor α = estrogen receptor α (Homo sapiens, UniProt P03372); conditions: previously reported; similar to the binding of estradiol; cited from earlier work
estrogen receptor β = estrogen receptor β (Homo sapiens, UniProt Q92731); conditions: previously reported; similar to the binding of estradiol; cited from earlier work
breast cancer = conditions: previously reported; cited from earlier work
[3] = test system: uterine cancer cell lines; conditions: previously reported; cited from earlier work

Chain of estrogen receptor α (P03372 whole entry): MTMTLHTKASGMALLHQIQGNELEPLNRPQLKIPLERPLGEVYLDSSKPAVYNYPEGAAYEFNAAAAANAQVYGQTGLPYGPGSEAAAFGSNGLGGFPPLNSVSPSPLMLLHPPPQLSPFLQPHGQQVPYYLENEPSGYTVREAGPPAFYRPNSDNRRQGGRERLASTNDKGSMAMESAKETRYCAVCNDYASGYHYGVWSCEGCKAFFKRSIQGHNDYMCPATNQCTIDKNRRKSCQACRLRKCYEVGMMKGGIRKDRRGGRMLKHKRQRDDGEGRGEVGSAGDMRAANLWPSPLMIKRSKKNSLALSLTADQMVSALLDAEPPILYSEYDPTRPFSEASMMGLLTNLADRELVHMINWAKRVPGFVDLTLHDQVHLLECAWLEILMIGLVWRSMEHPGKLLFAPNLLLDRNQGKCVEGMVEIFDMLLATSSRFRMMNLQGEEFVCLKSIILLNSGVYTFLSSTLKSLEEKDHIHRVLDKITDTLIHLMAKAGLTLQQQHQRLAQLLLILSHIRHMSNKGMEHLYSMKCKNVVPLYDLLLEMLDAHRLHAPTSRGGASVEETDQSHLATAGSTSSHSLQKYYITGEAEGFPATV
Chain of estrogen receptor β (Q92731 whole entry): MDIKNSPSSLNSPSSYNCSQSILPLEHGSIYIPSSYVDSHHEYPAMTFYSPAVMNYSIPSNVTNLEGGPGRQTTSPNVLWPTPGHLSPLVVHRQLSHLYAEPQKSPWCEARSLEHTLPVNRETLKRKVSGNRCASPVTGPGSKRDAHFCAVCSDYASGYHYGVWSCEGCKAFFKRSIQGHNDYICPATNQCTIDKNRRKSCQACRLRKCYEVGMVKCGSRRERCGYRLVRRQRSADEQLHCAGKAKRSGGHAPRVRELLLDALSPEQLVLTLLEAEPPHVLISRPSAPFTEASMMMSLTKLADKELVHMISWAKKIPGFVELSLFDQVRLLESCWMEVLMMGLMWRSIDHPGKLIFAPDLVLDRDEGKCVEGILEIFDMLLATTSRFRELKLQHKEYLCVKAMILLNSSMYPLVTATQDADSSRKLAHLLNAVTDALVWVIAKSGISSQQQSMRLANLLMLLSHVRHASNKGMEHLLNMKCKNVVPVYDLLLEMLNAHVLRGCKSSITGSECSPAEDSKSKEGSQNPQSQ

With `C#C[C@]1(O)CC[C@H]2[C@@H]3CCc4cc(O)ccc4[C@H]3CC[C@@]21C` [EE, 17α-ethanyl estradiol, reference compound] as the compound, how does the “total serum cholesterol (TSC)” value [1] read?
The value was “completely prevented this increase”.

And the uterine wet weight (uterus of OVX rats; daily gavage 28 days, EE 0.03 mg/kg, LAS 0.1 mg/kg)?
The uterine wet weight was “maintained the uterine wet weight at the level of sham controls”.

And the “pQCT cortical content, distal femur” value (OVX-induced bone loss)?
Its value is “completely prevented the OVX-induced decrease”.

And the “pQCT total density, distal femur” value (OVX-induced bone loss)?
Its value is “completely prevented the OVX-induced decrease”.

What about the OVX-induced bone loss (OVX-induced bone loss) of the same compound?
Its OVX-induced bone loss is “completely prevented OVX-induced bone loss”.

What about the “bone formation rate (BFR/BS)” value [2] of the same compound?
The value was “completely prevented these changes”.

What about the “mineral apposition rate (MAR)” value [2] of the same compound?
The value was “completely prevented these changes”.

What about the “mineralizing surface (MS/BS)” value [2] of the same compound?
The value was “completely prevented these changes”.

And the “osteoclast number (Oc.N/BS)” value [2]?
Its value is “completely prevented these changes”.

What about the “osteoclast surface (Oc.S/BS)” value [2] of the same compound?
The value was “completely prevented these changes”.

With `O=C(O)C(O)C(O)C(=O)O.Oc1ccc2c(c1)CC[C@H](c1ccccc1)[C@@H]2c1ccc(OCCN2CCCC2)cc1` [LAS, (−)-cis-6-phenyl-5-[4-(2-pyrrolidin-1-yl-ethoxy)-phenyl]-5,6,7,8-tetrahydro-naphthalene-2-ol, tartrate salt] as the compound, how does the “total serum cholesterol (TSC)” value ([1]; tartrate salt) read?
The value was “prevented the OVX-induced increase in TSC; also recorded: significantly decreased TSC to a level below both sham controls and rats treated with EE”.

And the “effect of LAS on the uterine effects of EE on co-administration” value (uterus of OVX rats; EE 0.03 mg/kg + LAS 0.1 mg/kg, 28 days, tartrate salt)?
Its value is “blocked the agonistic effects of EE in the uterus of OVX rats; also recorded: antagonized the uterine hypertrophy effects induced by EE”.

What about the “pQCT cortical content, distal femur” value (OVX-induced bone loss) of the same compound?
The value was “completely prevented the OVX-induced decrease”.

And the “pQCT total density, distal femur” value (OVX-induced bone loss)?
The value was “completely prevented the OVX-induced decrease”.

What about the OVX-induced bone loss (OVX-induced bone loss) of the same compound?
The OVX-induced bone loss was “completely prevented OVX-induced bone loss”.

What about the “bone formation rate (BFR/BS)” value [2] of the same compound?
Its value is “completely prevented these changes”.

And the “mineral apposition rate (MAR)” value [2]?
The value was “completely prevented these changes”.

And the “mineralizing surface (MS/BS)” value [2]?
The value was “completely prevented these changes”.

What about the “osteoclast number (Oc.N/BS)” value [2] of the same compound?
Its value is “completely prevented these changes”.

What about the “osteoclast surface (Oc.S/BS)” value [2] of the same compound?
The value was “completely prevented these changes”.

What about the “binding to estrogen receptor α” value (estrogen receptor α) of the same compound?
The value was “bound selectively and with high affinity”.

What about the “binding to estrogen receptor β” value (estrogen receptor β) of the same compound?
Its value is “bound selectively and with high affinity”.

And the “proliferation of breast cancer in vivo” value (breast cancer)?
The value was “antagonizes the proliferation”.

What about the “proliferation of uterine cancer cell lines in vitro” value [3] of the same compound?
The value was “antagonizes the proliferation”.
